Experimental data from US20070293543A1, “THRESHOLD BLOOD OMEPRAZOLE CONCENTRATION IS 50 NG/ML FOR THE MAINTENANCE OF INTRAGASTRIC pH OF AT LEAST 4.0 AFTER ORAL DOSING WITH CMA-OMEPRAZOLE, AGN 201904-Z” (priority 2006, published 2007).

Test system: intragastric pH
Experiment: 24-hr intragastric pH monitoring (pharmacodynamics)
Type: in vivo, healthy male subjects
Settings: oral once-daily dosing; for % time intragastric pH ≧4.0: 24-hr monitoring, p<0.0001 vs esomeprazole, dose level and day not stated
Method: Methods: Forty healthy male subjects received 240, 480, and 640 mg AGN 201904-Z or 40 mg esomeprazole orally once-daily for 5 days in a open-label, randomized, 4-way cross-over study. These doses were estimated to deliver molar equivalent omeprazole doses of 53%, 107%, and 143% of the esomeprazole dose, respectively. Pharmacokinetic (PK) blood samples were collected at 8 timepoints following the 1st and 5th dose of each treatment. Pharmacodynamics (PD) were evaluated via 24-hr intragastric ph monitoring before treatment and after the 1st and 5th doses of each treatment. Empirical PK/PD models were constructed for AGN 201904-Z data by regressing the % time that intragastric pH ≧4.0 during a 24-hr dosing period against the duration of time that blood omeprazole concentrations were greater than 8 different concentrations over the same 24-hr period. The possible threshold concentrations evaluated ranged from 10 to 400 ng/mL. The concentration that provided the best-fit was designated the threshold concentration. The best-fit concentration and model was chosen based on the WSSR, R^2, visual inspection, and AIC value. Results: Among the possible omeprazole threshold concentrations evaluated, 50 ng/mL was the best-fit concentration value in all of the models evaluated.

Row | SMILES | % time intragastric pH ≧4.0 | maintaining 24-hour intragastric pH ≧4.0, comparison with esomeprazole (healthy male subjects)
1 | COc1ccc2c(c1)nc([S+]([O-])Cc1ncc(C)c(OC)c1C)n2S(=O)(=O)c1ccc(OCC(=O)[O-])cc1.[Na+] (stereo not drawn) [AGN 201904-Z, sodium {4-[5-Methoxy-2-(4-methoxy-3,5-dimethyl-pyridin-2-ylmethanesulfinyl)-benzoimidazole-1-sulfonyl]-phenoxy}-acetate] | 80.1 % of 24-hr | more effective than esomeprazole
2 | COc1ccc2nc([S@@+]([O-])Cc3ncc(C)c(OC)c3C)[nH]c2c1 [esomeprazole, reference compound] | 68.4 % of 24-hr | 
